# Laboratory results from the Kinase Knowledgebase extract (Sharma et al. 2016).
# Biological target: EGFR (human) (UniProt P00533)
# Details: mcf-7
# Sequence of EGFR (human) (P00533 whole entry, looked up): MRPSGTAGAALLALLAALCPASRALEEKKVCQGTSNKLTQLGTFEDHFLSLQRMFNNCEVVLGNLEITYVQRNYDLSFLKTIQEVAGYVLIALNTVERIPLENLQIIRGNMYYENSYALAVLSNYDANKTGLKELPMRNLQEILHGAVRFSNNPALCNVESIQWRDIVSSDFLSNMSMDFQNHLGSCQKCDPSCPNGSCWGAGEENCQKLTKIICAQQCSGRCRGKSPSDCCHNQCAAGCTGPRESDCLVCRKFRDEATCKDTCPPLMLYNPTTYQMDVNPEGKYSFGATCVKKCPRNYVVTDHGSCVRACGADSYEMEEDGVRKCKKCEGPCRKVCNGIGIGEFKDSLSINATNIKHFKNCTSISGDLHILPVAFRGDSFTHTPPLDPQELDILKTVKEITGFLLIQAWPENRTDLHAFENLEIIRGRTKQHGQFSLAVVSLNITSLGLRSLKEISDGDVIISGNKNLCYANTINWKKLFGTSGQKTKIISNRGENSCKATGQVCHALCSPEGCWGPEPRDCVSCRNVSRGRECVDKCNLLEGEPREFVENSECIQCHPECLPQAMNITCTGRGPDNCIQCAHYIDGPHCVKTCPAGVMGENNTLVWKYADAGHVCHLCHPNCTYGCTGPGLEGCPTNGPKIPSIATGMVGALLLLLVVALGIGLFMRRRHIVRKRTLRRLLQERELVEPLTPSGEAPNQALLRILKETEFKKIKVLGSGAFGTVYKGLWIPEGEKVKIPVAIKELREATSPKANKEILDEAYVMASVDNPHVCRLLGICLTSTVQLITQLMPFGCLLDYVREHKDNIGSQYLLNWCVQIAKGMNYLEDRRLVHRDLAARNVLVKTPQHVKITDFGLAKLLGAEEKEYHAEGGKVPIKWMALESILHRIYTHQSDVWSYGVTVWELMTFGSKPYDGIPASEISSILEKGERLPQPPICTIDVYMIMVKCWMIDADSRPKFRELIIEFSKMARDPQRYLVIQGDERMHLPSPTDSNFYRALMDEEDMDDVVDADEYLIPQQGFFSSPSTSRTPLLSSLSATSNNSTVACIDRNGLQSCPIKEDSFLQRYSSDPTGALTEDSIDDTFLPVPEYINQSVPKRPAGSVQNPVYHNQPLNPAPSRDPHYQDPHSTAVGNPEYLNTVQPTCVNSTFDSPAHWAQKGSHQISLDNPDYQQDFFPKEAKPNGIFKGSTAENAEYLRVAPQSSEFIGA
row,Structure (SMILES),IC50
1,COc1cc2nc(Cl)nc(N3CCN(S(=O)(=O)c4ccc(C)cc4)CC3)c2cc1OC,1.08 nM
2,CCOc1ccc2nc(C)cc(Nc3ccc(S(=O)(=O)Nc4cc(C)on4)cc3)c2c1,13.8 nM
3,CCOc1ccc2nc(C)cc(Nc3cc(OC)c(OC)cc3C(=O)OC)c2c1,1.67 nM
4,CCOc1ccc2nc(C)cc(Nc3ccc(Cl)cc3Cl)c2c1,4.38 nM
5,COc1cc2nc(Cl)nc(Nc3ccc(S(=O)(=O)Nc4cc(C)on4)cc3)c2cc1OC,1.98 nM

# Next, values leading:
row,IC50,Structure (SMILES)
1,4.31 nM,CCOc1ccc2nc(C)cc(N3CCN(C(=O)c4ccco4)CC3)c2c1
2,0.13 nM,COc1cc2nc(Cl)nc(Nc3ccc(S(=O)(=O)Nc4nccs4)cc3)c2cc1OC
3,3.96 nM,CCOc1ccc2nc(C)cc(Nc3ccc(S(=O)(=O)Nc4ncccn4)cc3)c2c1
4,2.84 nM,CCOc1ccc2nc(C)cc(Nc3cccc(O)c3)c2c1
5,19.2 nM,CCOc1ccc2nc(C)cc(Nc3ccc(S(=O)(=O)NC(=N)N)cc3)c2c1
